Like-named read-outs stand apart in the source and are kept apart here.
Assays:
OsD14 = target: T1, OsD14 (Oryza sativa subsp. japonica, UniProt Q10QA5); test: In vitro YLG hydrolysis competition assay, OsD14; format: biochemical
T1 construct: made in house
T1 sequence (Q10QA5 1-318): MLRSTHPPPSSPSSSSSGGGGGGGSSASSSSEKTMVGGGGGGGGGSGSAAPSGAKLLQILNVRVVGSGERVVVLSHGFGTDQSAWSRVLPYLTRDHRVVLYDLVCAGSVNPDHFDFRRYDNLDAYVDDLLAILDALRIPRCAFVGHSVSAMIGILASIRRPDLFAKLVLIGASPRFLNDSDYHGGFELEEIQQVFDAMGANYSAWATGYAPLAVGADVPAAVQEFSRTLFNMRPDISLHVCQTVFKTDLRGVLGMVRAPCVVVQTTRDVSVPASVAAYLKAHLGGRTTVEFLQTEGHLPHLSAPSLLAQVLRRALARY
Method: Protein expression and purification of ShHTL7 and Oryza sativa D14 (OsD14) was carried out according to the procedure described earlier ([Jamil et al., 2018]). In vitro Yoshimulactone Green (YLG) hydrolysis assays ([Tsuchiya et al., 2015]) were carried out using 3.0 μM of protein ShHTL7 and OsD14 in a reaction buffer (1X PBS buffer, pH 7.3) with 0.1% DMSO at a 100-μl volume on a 96-well black plate (Greiner). For competitive assays, rac-GR24, AR8, MP13, and MP26 (at range between 0.01 and 50 μM) were co-incubated with 1.0 μM of YLG (Tokyo Chemical Industry Co. Ltd., product number E1238) for 60 min at room temperature. Fluorescent intensity was measured by spectraMax i5 (Molecular Devices) at excitation by 480 nm and detection by 520 nm. The change in fluorescence observed over the course of 1 h of YLG in buffer without protein was subtracted from the data collected in presence of protein. IC50 values were calculated by GraphPad (Prism 7).

rice d10 mutant = test: Rice micro tillering bioassay (d10 mutant, hydroponic); format: in vivo; conditions: for inhibition at 2.5 µM: Oryza sativa, read-out: tillering inhibition; for number of tillers per plant: SL-deficient d10 mutant, hydroponic, twice a week up to 3 weeks, untreated d10 six tillers
Method: Rice seeds (d10) were sterilized with 2.5% sodium hypochlorite for 15 min. After thorough washing with sterile MilliQ water, the seeds were kept in water for 2 days at 30°C in the dark for imbibition and pre-germination. The pre-germinated seeds were then transferred to moist filter paper in 90-mm petri plates and incubated at 30°C overnight. The plates with germinated seeds were then shifted in a growth cabinet with fluorescent white light (130–180 μM m^−2 s^−1) for 1 week. Seven days-old seedlings were moved to 50-ml falcon tubes (one seedling per tube) containing modified half-strength Hoagland nutrient solution in greenhouse. After 1 week, rice plants were treated with 2.5 μM of each SL analog. Mock and GR24 (2.5 μM) were included as control treatments. Six applications of each SL analog were done two times in a week. After 3 weeks of application, number of tillers per plant, plant height, and fresh biomass were measured at final harvest.

S. hermonthica seeds = test: Parasitic seed germination bioassay, Striga; format: in vivo, Striga hermonthica; conditions: for Striga germination rate: 1.0 μM, formulated and non-formulated, 24 h at 30°C; for EC50: Striga hermonthica
Method: Germination activity of SL analogs on S. hermonthica and P. aegyptiaca seeds was tested by following the procedure described before ([Jamil et al., 2012]). The preconditioned Striga and Phelipanche seeds were treated with 50 μl of each SL analog solution at a concentration range (10^−5–10^−12 M). GR24 and sterile MilliQ water were included as positive and negative controls, respectively. The treated seeds were allowed to germinate in the dark for 24 h at 30°C (for Striga) and for 1 week at 25°C (for Phelipanche). The germinated and non-germinated seeds were counted under a binocular microscope, and germination rate (in %) was calculated.
Collected data were analyzed statistically using statistical software package R (version 3.2.2).

Striga seeds = test: Stability of formulated SL analogs in sand (Striga germination readout); format: physicochemical, Striga hermonthica; conditions: 1.0 μM; for Striga seed germinating activity before incubation in sand: no incubation
Method: The stability of formulated SL analogs was further tested in sand culture. About 1.5 ml of silver sand was added in each of 6 wells of 24-well plates. Then, 800 μl of formulated SL analogs (1.0 μM) was added in each of the six wells. The plates were sealed firmly with para-film, wrapped in aluminum foil, and placed at 30°C from day 1 to day 7. After 7 days, glass fiber discs containing preconditioned Striga seeds were placed on the top of each of the six wells and incubated in the dark at 30°C for 24 h. The germinated and non-germinated seeds were counted from each disc. In addition, the viability of formulated SL analogs was also tested in aqueous solution for 7 weeks at 30°C. About 800-μl aqueous solution of formulated SL analogs (1.0 μM) was added in a black Eppendorf tube weekly up to 6 weeks and incubated at 30°C. On the seventh week, about 50 μl of each analog was applied on a glass fiber disc containing preconditioned Striga seed and put again in the dark in sealed petri plates at 30°C for 24 h. Germinated and non-germinated seeds were counted from each disc.

Striga = Striga emergence after formulated MP13 in naturally infested farmer's field (pearl millet host); format: in vivo
Method: A naturally Striga-infested farmer’s field was selected near Kouaré research station ([…], 0°30′W) (Fada N’Gourma, Burkina Faso) to test suicidal activity of formulated MP13, taking formulated water treatment as control treatment. After onset of few rains, the field was thoroughly prepared by subsequent ploughing and planking. The experiment was laid out in a randomized complete block design with four plots or replications. Each plot consisted of two 3-m-long mounds and spaced with one mound between rows. Formulated MP13 and normal water (control) were applied twice in each plot (25 ml m^−2) following rains (~10 mm) to get a final concentration of 0.5 μM. Local pearl millet crop was sown at least 1 week after the second application. Data on the number of emerged Striga plants at three counting dates were collected in both fields on a plot basis. The three Striga counts were then used to calculate the average number of emerged Striga plants throughout the season.

[1] = read-out: EC50 Striga seed germination, formulated
[2] = read-out: EC50 Striga seed germination, non-formulated

Structure (SMILES) | IC50 (OsD14) | inhibition at 2.5 µM (rice d10 mutant) | number of tillers per plant (rice d10 mutant; 2.5 μM) | plant height compared to mock (rice d10 mutant; d10 mutant, 2.5 μM) | Striga germination rate (S. hermonthica seeds) | EC50 (S. hermonthica seeds; [1]) | EC50 (S. hermonthica seeds; [2]) | Striga seed germinating activity before incubation in sand (Striga seeds) | Striga seed germinating activity after 1 day in sand (Striga seeds; sand, 30°C) | Striga seed germinating activity after day 3 in sand (Striga seeds; sand, 30°C, after day 3) | Striga emergence (No. per plot), change vs control (Striga; formulated MP13, 0.5 μM, printed in Figure 8E) | Striga plants counted at the end of the season (Striga; formulated MP13 applied twice, final conc. 0.5 μM, pearl millet, mock field 154) | Striga seed germinating activity after 2 days in sand (Striga seeds; sand, 30°C, 2 days)
COC(=O)/C=C/C(C)=C/OC1C=C(C)C(=O)O1 (stereo not drawn) [MP26, (2E,4E)-methyl 4-methyl-5-(4-methyl-5-oxo-2,5-dihydrofuran-2-yloxy)penta-2,4-dienoate] | 2070 ± 800 nM | 57% | 2.5 tillers per plant | significant increase in plant height | 37–70% | 98 nM | 350 nM | around 60% | 27% | not detectable |  |  | 
CC1=CC(O/C=C(\C)C=O)OC1=O (stereo not drawn) [MP13, (E)-2-methyl-3-[(4-methyl-5-oxo-2,5-dihydrofuran-2-yl)oxy]acrylaldehyde] | 3450 ± 1200 nM | 23% | 4.5 tillers per plant |  | 37–70% | 110 nM | 640 nM | around 60% | 10% |  | -41% | 91 plants m^−2 | complete loss of the activity
CC1=C(C)C(O/C=C(\C)C=O)OC1=O (stereo not drawn) [AR8, reference compound] | 4870 ± 780 nM |  | 5.6 tillers per plant |  | 9% | 990 nM | 690000 nM |  | completely lost its ability to induce Striga germination |  |  |  | 

Source: paper PMC6455008, “Methylation at the C-3′ in D-Ring of Strigolactone Analogs Reduces Biological Activity in Root Parasitic Plants and Rice” (Frontiers in Plant Science, 2019)
